The text below walks through data of PubChem BioAssay (NCI).

Among the test systems are A498 renal; BT-549 breast; HCC-2998 colon; HL-60(TB) leukemia; IGROV1 ovarian; MOLT-4 leukemia; NCI-H23 lung; OVCAR-3 ovarian; SF-295 CNS; TK-10 renal.
Holding throughout (test): NCI tumour cell line growth inhibition, 48 h

Molecules are shown by their SMILES.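 The compound was tested at five concentrations on cells cultured in 96-well plates, with a 48-hour exposure period. TGI denotes the concentration required for complete inhibition of growth.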

With `COc1ccc2c(c1)c(=O)c1c(NCCCN(C)CCCNc3ccc4c(=O)n(CCN(C)C)c(=O)n5c6ccc(OC)cc6c(=O)c3c45)ccc3c(=O)n(CCN(C)C)c(=O)n2c31`, the TGI in the assay on A498 renal was found to be 3.39 µM; in the assay on BT-549 breast, 2.12 µM; in the assay on HCC-2998 colon it was 0.544 µM; in the assay on HL-60(TB) leukemia, 0.963 µM; with IGROV1 ovarian, 0.584 µM; with MOLT-4 leukemia it was 0.118 µM. Further, the TGI in the assay with NCI-H23 lung is 0.704 µM; with OVCAR-3 ovarian it was 2.56 µM; in the assay on SF-295 CNS, 3.48 µM; with TK-10 renal, 6.6 µM.
With `CC1(CCc2ccccc2)CC1(Br)Br` (centres undefined), the TGI in the assay with A498 renal was greater than 100 µM; in the assay on BT-549 breast it was greater than 100 µM; with HCC-2998 colon, 76.2 µM; with HL-60(TB) leukemia it was 41.9 µM; in the assay with IGROV1 ovarian, greater than 100 µM; in the assay on MOLT-4 leukemia, 56 µM. For the same molecule, the TGI in the assay with NCI-H23 lung was greater than 100 µM; with OVCAR-3 ovarian it was 39.9 µM; in the assay with SF-295 CNS it was greater than 100 µM.
Regarding `COC(=O)c1ccc(CCC2=CC(=O)C(Br)=CC2=O)cc1`, the TGI was found to be 36.5 µM in the assay on A498 renal; 23.9 µM with BT-549 breast; 29.1 µM with HCC-2998 colon; 5.2 µM in the assay with HL-60(TB) leukemia; 28.7 µM with IGROV1 ovarian; 7.32 µM with MOLT-4 leukemia. Moreover, the TGI is 28.4 µM in the assay with NCI-H23 lung, 31.4 µM in the assay with OVCAR-3 ovarian, 37.4 µM in the assay with SF-295 CNS and 31.1 µM in the assay on TK-10 renal.
As for `Cc1c(C#N)c2nnn(-c3ccc([N+](=O)[O-])cc3)c(=O)n2c1-c1ccccc1`, the TGI in the assay on A498 renal is 29.5 µM; in the assay with BT-549 breast, 31.8 µM; in the assay on HCC-2998 colon, 20 µM; in the assay on HL-60(TB) leukemia, 60.3 µM; in the assay on IGROV1 ovarian, 33.6 µM; in the assay with NCI-H23 lung, 18.5 µM. For the same molecule, the TGI in the assay on OVCAR-3 ovarian was 10 µM; in the assay on SF-295 CNS, 14 µM; with TK-10 renal, greater than 100 µM.
Take `COc1cc(CCNC2=CC(=O)c3cccnc3C2=O)ccc1O`: the TGI is 7.6 µM in the assay on A498 renal; 2.75 µM with BT-549 breast; 3.58 µM with HCC-2998 colon; 9.43 µM in the assay on HL-60(TB) leukemia; 4.3 µM in the assay on IGROV1 ovarian; 18.2 µM with MOLT-4 leukemia. The TGI in the assay with NCI-H23 lung was found to be 4.65 µM; in the assay on OVCAR-3 ovarian, 5.51 µM; with SF-295 CNS, 2.6 µM; in the assay on TK-10 renal, 30.5 µM.
Regarding `NNC(=O)Cc1cccnc1`, the TGI in the assay with A498 renal, in the assay on BT-549 breast, in the assay with HCC-2998 colon, with HL-60(TB) leukemia, in the assay on IGROV1 ovarian and with MOLT-4 leukemia was greater than 100 µM each time. For the same molecule, the TGI with NCI-H23 lung, in the assay with OVCAR-3 ovarian, in the assay with SF-295 CNS and in the assay on TK-10 renal was greater than 100 µM throughout.
With `c1nncn1C12C3C4C5C3C1C5C42` (centres undefined), the TGI in the assay on A498 renal, with BT-549 breast, in the assay with HCC-2998 colon, in the assay with HL-60(TB) leukemia, in the assay on IGROV1 ovarian and with MOLT-4 leukemia was greater than 100 µM in each case. The TGI in the assay on NCI-H23 lung, in the assay on SF-295 CNS and in the assay on TK-10 renal was greater than 100 µM in each case.
`O=C(CCCC1Cc2ccccc2C1=O)c1ccccc1` (centres undefined): the TGI in the assay on A498 renal is greater than 100 µM; in the assay on BT-549 breast it was greater than 100 µM; in the assay on HCC-2998 colon, greater than 100 µM; in the assay on HL-60(TB) leukemia, 77.4 µM; with IGROV1 ovarian, greater than 100 µM; in the assay on MOLT-4 leukemia, greater than 100 µM. The TGI with NCI-H23 lung, in the assay with OVCAR-3 ovarian, in the assay on SF-295 CNS and in the assay on TK-10 renal was greater than 100 µM each time.
As to `NC(Cc1ccccc1)=NCC(=O)O`, the TGI with A498 renal, in the assay on BT-549 breast, with HCC-2998 colon, with HL-60(TB) leukemia, in the assay on IGROV1 ovarian and in the assay on MOLT-4 leukemia was greater than 100 µM each time. The TGI with NCI-H23 lung, in the assay with OVCAR-3 ovarian, in the assay on SF-295 CNS and in the assay on TK-10 renal was greater than 100 µM in each case.
`OCCN1CN(c2nc(N3CN(CCO)C3)nc(N3CN(CCO)C3)n2)C1`: the TGI in the assay on A498 renal is 96.2 µM; with BT-549 breast, 70.8 µM; with HCC-2998 colon it was 41.7 µM; in the assay on HL-60(TB) leukemia, 40.1 µM; in the assay with IGROV1 ovarian, 85.6 µM; in the assay on MOLT-4 leukemia it was greater than 100 µM. The TGI with NCI-H23 lung stood at 50 µM; with TK-10 renal it was 78.7 µM.
As for `COC(=O)C1=COC(C)C2C[n+]3ccc4c([nH]c5ccccc54)c3CC12` (centres undefined), the TGI with A498 renal, with BT-549 breast, in the assay with HCC-2998 colon, in the assay on HL-60(TB) leukemia, with IGROV1 ovarian and in the assay on MOLT-4 leukemia was greater than 100 µM each time. The TGI in the assay with NCI-H23 lung, with OVCAR-3 ovarian, in the assay with SF-295 CNS and in the assay with TK-10 renal was greater than 100 µM in each case.
`Cc1c(C)c2c(c(N)c1C#N)C(=O)N(OS(=O)(=O)c1ccccc1)C2=O`: the TGI with A498 renal is greater than 100 µM; in the assay with BT-549 breast it was 39.7 µM; in the assay with HCC-2998 colon it was greater than 100 µM; with HL-60(TB) leukemia, greater than 100 µM; with IGROV1 ovarian, 37.7 µM; with MOLT-4 leukemia, 87 µM. Also, the TGI is 59.8 µM in the assay on OVCAR-3 ovarian, greater than 100 µM in the assay with SF-295 CNS and 37.2 µM in the assay on TK-10 renal.
Take `CCOC(=O)c1[nH]cnc1/N=N/N(C)N`: the TGI with A498 renal was greater than 100 µM; in the assay with BT-549 breast, greater than 100 µM; in the assay on HCC-2998 colon it was greater than 100 µM; in the assay on HL-60(TB) leukemia, 68.6 µM; in the assay with IGROV1 ovarian, greater than 100 µM; in the assay with MOLT-4 leukemia, greater than 100 µM. Moreover, the TGI in the assay with NCI-H23 lung, in the assay with OVCAR-3 ovarian, in the assay on SF-295 CNS and in the assay with TK-10 renal was greater than 100 µM each time.
As to `C/C=C1\CN2CCC34c5ccccc5N(C)C35OCC4(C(=O)OC)C1CC25` (centres undefined), the TGI was greater than 100 µM in the assay with A498 renal; greater than 100 µM in the assay with BT-549 breast; 29.1 µM in the assay on HCC-2998 colon; 78.3 µM with HL-60(TB) leukemia; greater than 100 µM in the assay on IGROV1 ovarian; greater than 100 µM in the assay with MOLT-4 leukemia. Besides, the TGI in the assay with NCI-H23 lung, in the assay on OVCAR-3 ovarian, in the assay with SF-295 CNS and in the assay on TK-10 renal was greater than 100 µM throughout.
